Results from PubChem BioAssay AID1259407 (Chemical Carcinogenesis Research Information System (CCRIS), 2018).
Calls of active or inactive are those of the source. The rule behind the calls is not given here.

System: CCRIS mutagenicity, Ames/micronucleus/aberration tests
Experiment: CCRIS mutagenicity studies
[1] = Test System: AMES SALMONELLA TYPHIMURIUM, Strain/Indicator: TA98, Metabolic Activation: NONE, Method: STANDARD PLATE
[2] = Test System: AMES SALMONELLA TYPHIMURIUM, Strain/Indicator: TA100, Metabolic Activation: NONE, Method: STANDARD PLATE
[3] = Test System: MOUSE LYMPHOMA, Strain/Indicator: L5178Y (TK+/TK-), Metabolic Activation: NONE, Method: SUSPENSION/PLATE

OCCNCCO
mutagenic call (End Point: IN VITRO CHROMOSOMAL ABERRATIONS, Test System: CHO CELLS, Metabolic Activation: NONE): inactive; negative | mutagenic call (End Point: IN VITRO CHROMOSOMAL ABERRATIONS, Test System: CHO CELLS, Metabolic Activation: RAT, LIVER, S-9, AROCLOR 1254): inactive; negative; weak response at highest dose | mutagenic call (Test System: AMES SALMONELLA TYPHIMURIUM, Strain/Indicator: TA98, Metabolic Activation: HAMSTER, LIVER, S-9, AROCLOR 1254, Method: PREINCUBATION): inactive; negative | mutagenic call (Test System: AMES SALMONELLA TYPHIMURIUM, Strain/Indicator: TA98, Metabolic Activation: NONE, Method: PREINCUBATION): inactive; negative | mutagenic call (Test System: AMES SALMONELLA TYPHIMURIUM, Strain/Indicator: TA98, Metabolic Activation: RAT, LIVER, S-9, AROCLOR 1254, Method: PREINCUBATION): inactive; negative | mutagenic call (Test System: AMES SALMONELLA TYPHIMURIUM, Strain/Indicator: TA100, Metabolic Activation: HAMSTER, LIVER, S-9, AROCLOR 1254, Method: PREINCUBATION): inactive; negative | mutagenic call (Test System: AMES SALMONELLA TYPHIMURIUM, Strain/Indicator: TA100, Metabolic Activation: NONE, Method: PREINCUBATION): inactive; negative | mutagenic call (Test System: AMES SALMONELLA TYPHIMURIUM, Strain/Indicator: TA100, Metabolic Activation: RAT, LIVER, S-9, AROCLOR 1254, Method: PREINCUBATION): inactive; negative | mutagenic call (Test System: AMES SALMONELLA TYPHIMURIUM, Strain/Indicator: TA1535, Metabolic Activation: HAMSTER, LIVER, S-9, AROCLOR 1254, Method: PREINCUBATION): inactive; negative | mutagenic call (Test System: AMES SALMONELLA TYPHIMURIUM, Strain/Indicator: TA1535, Metabolic Activation: NONE, Method: PREINCUBATION): inactive; negative | mutagenic call (Test System: AMES SALMONELLA TYPHIMURIUM, Strain/Indicator: TA1535, Metabolic Activation: RAT, LIVER, S-9, AROCLOR 1254, Method: PREINCUBATION): inactive; negative | mutagenic call (Test System: AMES SALMONELLA TYPHIMURIUM, Strain/Indicator: TA1537, Metabolic Activation: HAMSTER, LIVER, S-9, AROCLOR 1254, Method: PREINCUBATION): inactive; negative | mutagenic call (Test System: AMES SALMONELLA TYPHIMURIUM, Strain/Indicator: TA1537, Metabolic Activation: NONE, Method: PREINCUBATION): inactive; negative | mutagenic call (Test System: AMES SALMONELLA TYPHIMURIUM, Strain/Indicator: TA1537, Metabolic Activation: RAT, LIVER, S-9, AROCLOR 1254, Method: PREINCUBATION): inactive; negative

Nc1ncnc2c1ncn2[C@H]1C[C@H](O)[C@@H](CO)O1
mutagenic call [1]: inactive; negative | mutagenic call (Test System: AMES SALMONELLA TYPHIMURIUM, Strain/Indicator: TA98, Metabolic Activation: RAT, LIVER, S-9, POLYCHLORINATED BIPHENYLS, Method: STANDARD PLATE): inactive; negative | mutagenic call [2]: inactive; negative | mutagenic call (Test System: AMES SALMONELLA TYPHIMURIUM, Strain/Indicator: TA100, Metabolic Activation: RAT, LIVER, S-9, POLYCHLORINATED BIPHENYLS, Method: STANDARD PLATE): inactive; negative | mutagenic call [3]: active; positive

CN(C)CCNC(=O)c1ccc2c(N)c3ccccc3nc2c1
mutagenic call (Test System: AMES SALMONELLA TYPHIMURIUM, Strain/Indicator: TA1537, Metabolic Activation: NONE, Method: STANDARD PLATE): inactive; negative

COc1cc(O)c2c(O)c3c(=O)oc(C)cc3c(OC)c2c1
mutagenic call (Test System: AMES SALMONELLA TYPHIMURIUM, Strain/Indicator: TA98, Metabolic Activation: MOUSE, LIVER, S-9, AROCLOR 1254, Method: STANDARD PLATE): active; positive | mutagenic call [1]: active; positive | mutagenic call (Test System: AMES SALMONELLA TYPHIMURIUM, Strain/Indicator: TA100, Metabolic Activation: MOUSE, LIVER, S-9, AROCLOR 1254, Method: STANDARD PLATE): active; positive | mutagenic call [2]: active; positive | mutagenic call (Test System: AMES SALMONELLA TYPHIMURIUM, Strain/Indicator: TA102, Metabolic Activation: MOUSE, LIVER, S-9, AROCLOR 1254, Method: STANDARD PLATE): active; positive | mutagenic call (Test System: AMES SALMONELLA TYPHIMURIUM, Strain/Indicator: TA102, Metabolic Activation: NONE, Method: STANDARD PLATE): active; positive

CCOC(=O)NC
mutagenic call [3]: inactive; negative | mutagenic call (Test System: MOUSE LYMPHOMA, Strain/Indicator: L5178Y (TK+/TK-), Metabolic Activation: RAT, LIVER, S-9, AROCLOR 1254, Method: SUSPENSION/PLATE): active; positive

C=CCC1OC(=O)C=CC1O (configuration not stated)
mutagenic call [1]: inactive; negative | mutagenic call (Test System: AMES SALMONELLA TYPHIMURIUM, Strain/Indicator: TA98, Metabolic Activation: RAT, LIVER, S-9, AROCLOR 1254, Method: STANDARD PLATE): inactive; negative | mutagenic call [2]: inactive; negative | mutagenic call (Test System: AMES SALMONELLA TYPHIMURIUM, Strain/Indicator: TA100, Metabolic Activation: RAT, LIVER, S-9, AROCLOR 1254, Method: STANDARD PLATE): inactive; negative
